Values quoted from earlier work as cited in patent US10842782B2, “Storage stable composition comprising rifaximin alpha” (Sandoz AG, priority 2016, dated 2020).

Settings: single 400 mg dose

| AUC [ng·h/mL] | Cmax [ng/mL] | SMILES |
| --- | --- | --- |
| 17 | 2.6 | CO[C@H]1/C=C/O[C@@]2(C)Oc3c(C)c(O)c4c(O)c(c5c(nc6cc(C)ccn65)c4c3C2=O)NC(=O)/C(C)=C\C=C\[C@H](C)[C@H](O)[C@@H](C)[C@@H](O)[C@@H](C)[C@H](OC(C)=O)[C@@H]1C [Alpha, (2S,16Z,18E,20S,21S,22R,23R,24R,25S,26S,27S,28E)-5,6,21,23,25-pentahydroxy-27-methoxy-2,4,11,16,20,22,24,26-octamethyl-2,7-(epoxypentadeca[1,11,13]trienimino) benzofuro[4,5-e]pyrido[1,2-a]-benzimidazole-1,15(2H)-dione,25-acetate] |
| 830 | 308.3 | CO[C@H]1/C=C/O[C@@]2(C)Oc3c(C)c(O)c4c(O)c(c5c(nc6cc(C)ccn65)c4c3C2=O)NC(=O)/C(C)=C\C=C\[C@H](C)[C@H](O)[C@@H](C)[C@@H](O)[C@@H](C)[C@H](OC(C)=O)[C@@H]1C [Delta, (2S,16Z,18E,20S,21S,22R,23R,24R,25S,26S,27S,28E)-5,6,21,23,25-pentahydroxy-27-methoxy-2,4,11,16,20,22,24,26-octamethyl-2,7-(epoxypentadeca[1,11,13]trienimino) benzofuro[4,5-e]pyrido[1,2-a]-benzimidazole-1,15(2H)-dione,25-acetate] |
